Results reported in PubChem BioAssay (NCI).
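How tested: cells in 96-well plates exposed to compound for 48 hours at five concentrations. Abbreviation: GI50, concentration required for 50% inhibition of growth. TGI is the concentration that stops growth completely.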

Tests used:
Test in all cases: NCI-60 cell line screen, 48 h
A498 renal = tested on: A498 renal
OVCAR-3 ovarian = tested on: OVCAR-3 ovarian
K-562 leukemia = tested on: K-562 leukemia
NCI-H522 lung = tested on: NCI-H522 lung
MDA-MB-435 = tested on: MDA-MB-435
SK-OV-3 ovarian = tested on: SK-OV-3 ovarian
COLO 205 colon = tested on: COLO 205 colon
MALME-3M melanoma = tested on: MALME-3M melanoma
NCI/ADR-RES ovarian = tested on: NCI/ADR-RES ovarian
MCF7 breast = tested on: MCF7 breast

Row | Compound | GI50 (A498 renal) [nM] | TGI (A498 renal) [µM] | GI50 (OVCAR-3 ovarian) [nM] | TGI (OVCAR-3 ovarian) [µM] | GI50 (K-562 leukemia) [nM] | TGI (K-562 leukemia) [µM] | GI50 (NCI-H522 lung) [nM] | TGI (NCI-H522 lung) [µM] | GI50 (MDA-MB-435) [nM] | TGI (MDA-MB-435) [µM] | GI50 (SK-OV-3 ovarian) [µM] | TGI (SK-OV-3 ovarian) [µM] | GI50 (COLO 205 colon) [nM] | TGI (COLO 205 colon) [µM] | GI50 (MALME-3M melanoma) [nM] | TGI (MALME-3M melanoma) [µM] | GI50 (NCI/ADR-RES ovarian) [µM] | TGI (NCI/ADR-RES ovarian) [µM] | GI50 (MCF7 breast) [nM] | TGI (MCF7 breast) [µM]
1 | C=CCC(N[C@@H](CO)c1ccccc1)c1cn(Cc2ccccc2Cl)c(=O)n(Cc2ccccc2Cl)c1=O (stereo not given in full) | 13500 | > 100 | > 100000 | > 100 | > 100000 | > 100 | > 100000 | > 100 | > 100000 | > 100 | > 100 | > 100 | > 100000 | > 100 | > 100000 | > 100 | > 100 | > 100 | > 100000 | > 100
2 | CC(C)(C)N1CCC1CN (stereo not given) | > 100000 | > 100 | > 100000 | > 100 | > 100000 | > 100 | > 100000 | > 100 | > 100000 | > 100 | > 100 | > 100 | > 100000 | > 100 | > 100000 | > 100 | > 100 | > 100 | > 100000 | > 100
3 | CCOC(=O)c1ccc(Nc2sc(C(=O)c3ccc(Br)cc3)c(N)c2C#N)cc1 | 321 | 6.02 | 364 | 2.19 | 513 | > 100 | 530 | > 100 | 257 | 1.01 | 1.04 | > 100 | 675 | 2.47 | 3660 | > 100 | 0.842 | > 100 | 655 | > 100
4 | CN(C)c1ccc(/C=C/c2ccnc3c(O)cccc23)cc1 | 3390 | > 100 | 462 | > 100 | 364 | > 100 | 257 | 1.72 | 455 | > 100 | 0.461 | > 100 | 18500 | > 100 | 847 | 9.43 | 0.312 | – | 371 | > 100
5 | Cc1c(O)c2ccccc2oc1=O | – | > 100 | – | > 100 | – | > 100 | – | > 100 | – | > 100 | – | – | – | > 100 | – | > 100 | – | > 100 | – | > 100
6 | Cn1cc(C2=C(c3ccccc3[N+](=O)[O-])C(=O)NC2=O)c2ccccc21 | 384 | 2.57 | 2320 | > 21.8 | 2140 | > 25 | 5780 | 18.1 | 4820 | > 25 | 4.79 | > 25 | 2790 | 6.38 | 9550 | > 20.8 | 6.32 | > 21.6 | 4050 | > 25
7 | CCOC(=O)c1ccc2c(c1)Cc1cc([N+](=O)[O-])ccc1-2 | – | > 100 | – | > 100 | – | > 100 | – | – | – | > 100 | – | > 100 | – | 78.6 | – | > 100 | – | 99.4 | – | 71.2
8 | CN1CCC(COc2cnc(-c3cccc(Cn4nc(-c5cccc(C#N)c5)ccc4=O)c3)nc2)CC1 | 7200 | 20.6 | 2450 | 6.06 | 1740 | 4.32 | 2270 | 5.06 | 2740 | 9.47 | 5.93 | 18.5 | 1920 | 3.68 | 1830 | 3.63 | 7.41 | 28.1 | 3460 | 14.9
9 | COc1ccc2sc3cccc(NCCN(C)C)c3c(=O)c2c1 | 1200 | 9.38 | 4650 | 16.5 | 2370 | 5.2 | 2790 | 10.1 | 2030 | 5.07 | 4.26 | 15 | 1750 | 3.42 | 1950 | 3.88 | 2.98 | 11.3 | 1760 | 3.9
10 | CSC1=Nc2c(c(C)c(-c3ccccc3)n2CCCN2CCCCC2)C2=NC(=O)C[C@H](C)N12 | 2600 | 9.64 | 2550 | 11 | 5080 | 87.6 | 2550 | 9.78 | 2970 | 10.8 | 2.66 | 8.57 | 1510 | 2.95 | 2630 | 9.61 | 20 | 79.1 | 2720 | 11.3
11 | CCOC(=O)[C@@H](C)C[C@H](Cc1ccccc1)NC(=O)c1nc([C@@H](C[C@H](C(C)C)N(C)C(=O)[C@@H](NC(=O)[C@H]2CCCCN2C)C(C)C)OC(C)=O)sc1CCOCc1ccccc1 | 26.4 | 0.417 | 39.6 | – | 35.8 | 1.92 | 29 | 0.319 | 12.3 | 0.0478 | 0.0188 | > 11.1 | 52.2 | 0.276 | 60.2 | 2.17 | 0.503 | 3.98 | 40.4 | 4.33
12 | Cc1ccc(Cl)cc1Nc1nc(C(F)(F)F)ccc1C(=O)N/N=C/c1cccnc1 | 2950 | 11.7 | 2450 | 14.3 | 1710 | > 39 | 6640 | 22.5 | 3990 | 15.7 | 3.31 | 15.9 | 4860 | 17.7 | 1270 | 8.27 | 3.21 | 20.3 | 2450 | 13.9
13 | CCCCCCCC/C=C/CCCCCCCC1=NC(C)(C)CN1CC(C)O (stereo not given) | 935 | 17 | 5370 | 9.96 | 1440 | 3.27 | 1920 | 4.33 | 1770 | 3.45 | 7.64 | 21.1 | 1760 | 3.45 | 1970 | 4.67 | 2.68 | 6.9 | 1850 | 3.62
14 | C=C(C)[C@@H]1CC[C@]2(COCCC#N)CC[C@]3(C)[C@H](CC[C@@H]4[C@@](C)(CCCNCCC#N)[C@H](C(=C)C)CC[C@]43C)[C@@H]12 | > 50000 | > 50 | 9660 | 22.4 | 8940 | 31.6 | 8550 | 23.4 | 12700 | 34.5 | > 50 | > 50 | 14600 | > 50 | 8420 | 16.2 | 20.7 | > 50 | 9900 | 48.5
15 | Cc1cc(Nc2ccc(OCc3ccccc3)cc2)nc2cc(O)ccc12 | 13000 | 27 | 8790 | 22.5 | 1090 | 14.9 | 3010 | 12.1 | 5490 | 17.9 | 13.4 | 26.7 | 4840 | 17 | 3880 | 11.2 | 5.93 | 19.8 | 3320 | 14.2
16 | O=C(COc1ccc(/C=C2\COc3ccccc3C2=O)cc1)Nc1nccs1 | 19300 | 33.7 | 2730 | 5.81 | 1600 | 4.64 | 1910 | 4.39 | 3560 | 18.4 | 30.9 | 69.5 | 14600 | 29 | 16300 | 36.2 | 24.7 | > 100 | 3920 | 14.2
17 | COC1=CC(c2ccc[nH]2)=N/C1=C\c1[nH]c(C)c(CC(=O)OCc2ccccc2)c1CCC(=O)OCc1ccccc1 | 288 | 2.42 | 363 | 1.46 | – | – | 302 | 1.85 | 412 | 1.64 | 0.523 | 3.11 | 260 | 1.2 | 886 | 2.62 | 0.579 | 3.37 | 372 | 5.5
18 | Cc1cccc(-c2[nH]ncc2-c2ccc3ncccc3n2)n1 | > 14100 | > 25 | 14400 | > 25 | > 25000 | > 25 | > 25000 | > 25 | 15400 | > 25 | > 21.9 | > 25 | 6310 | 16.7 | > 25000 | > 25 | 13.7 | > 25 | 8480 | > 25
19 | CC[C@@H]1[C@@H](C)O[C@@](O)([C@@H](C)[C@H](O)[C@H](C)[C@H]2OC(=O)/C=C/C=C/[C@H](C)[C@@H]([C@@H](C)[C@@H](O)[C@H](C)[C@@]3(O)C[C@@H](O[C@H]4C[C@@H](O)[C@H](O)C(C)O4)[C@H](CC)[C@@H](C)O3)OC(=O)/C=C/C=C/[C@@H]2C)C[C@H]1O[C@@H]1C[C@@H](O)[C@H](O)C(C)O1 (stereo not given in full) | 59.6 | 0.131 | 79.1 | 0.219 | 116 | 0.378 | 88.5 | 0.303 | 86.7 | 0.261 | 0.072 | 0.189 | 79.5 | 0.179 | 85.7 | 0.234 | 1.05 | 7.04 | 84.3 | 0.287
20 | CC12OOC(c3ccccc31)c1c2ccc2ccccc12 (stereo not given) | – | 32.1 | – | 5.81 | – | 3.58 | – | 1.99 | – | 18.2 | – | 34.3 | – | 3.24 | – | 5.79 | – | 24.1 | – | 32.4
21 | COc1ccc(N=Cc2c(O)ccc3c2oc2cc(Cl)c(O)c(Cl)c23)cc1 | 14500 | 28.5 | 6910 | 22.3 | 5630 | 49.7 | 9610 | 28.2 | 11600 | 43.2 | 15.9 | 49.5 | 16000 | 33.2 | 3630 | 21.8 | 12.2 | 50.7 | 7700 | 44.1
22 | COc1ccc(/C=C(/C(=O)N2CCN(c3ccccc3)CC2)c2cc(OC)c(OC)c(OC)c2)cc1N | 142 | 0.778 | 366 | > 100 | 316 | > 100 | 242 | 0.91 | 138 | 0.419 | 0.472 | > 100 | 362 | 2.43 | 12200 | > 100 | 0.623 | > 100 | 326 | > 100
23 | COC1C(CO)OC(n2c3ccccc3c3c4c(c5c6ccccc6[nH]c5c32)C(=O)NC4=O)C(O)C1O (stereo not given) | 16 | 0.0998 | 78.5 | 0.369 | < 14.5 | – | < 10 | 0.153 | 63.3 | 0.901 | 0.0876 | 2.22 | < 36 | 2.14 | < 18 | – | 1.37 | > 43.7 | 33.6 | 2.07
24 | CC[C@H]1CN2CCc3cc(OC)c(OC)cc3C2C[C@@H]1CC1NCCc2cc(OC)c(OC)cc21 (stereo not given in full) | – | 0.313 | – | 0.197 | 13.7 | 0.0779 | 12.7 | 0.0354 | 16.1 | 0.112 | – | 0.292 | – | 0.017 | – | 0.222 | – | 1.19 | 14.6 | 1.22
25 | C=C(C)C1CC/C(C)=C/CCC2(C)OC2CC/C(CO)=C\C1O (stereo not given) | – | > 100 | – | > 100 | – | > 100 | – | – | – | > 100 | – | > 100 | – | > 100 | – | > 100 | – | > 100 | – | > 100
